Values after ≈ are worked out from the molar mass of the structure shown. Marks after values point to notes of the source that are not given here.
Tests used:
Assay type in all cases: physicochemical
[1] = Water vapor sorption (humidity chamber) and aqueous suspension, form produced; settings: for form B′ formed: powder stored in humidified chamber 96% r.h./23° C. (room temperature), 11 weeks, Raman and DSC
Procedure: The compound was stored in a glass tube under 96% r.h. (relative humidity) in a humidity chamber at room temperature. After different time of storage Raman measurements were conducted using hermetically closed glass tubes.

[2] = Suspension equilibration experiments; settings: stirred 20 h/23° C.
Procedure: Suspension equilibration experiments were carried out with 81-128 mg of the compound. The suspensions were stirred with a magnetic stirrer. The samples obtained after filtration were air dried at ambient temperature for a short time only to prevent possible desolvation of labile hydrates or solvates.

[3] = Dynamic vapor sorption (DVS); settings: 25° C.
Procedure: Dynamic vapor sorption quantification relates the mass of water absorbed and subsequently desorbed during the crystallization process. In order to define whether batch P1, P2 and P4 are hydrated polymorphs, DVS measurements were conducted (FIG. 9). A sample (13 to 14 mg) was placed on a Pt pan, and the sample was allowed to equilibrate at 25° C./50% r.h. before starting a pre-defined humidity program (1.0 hours 50%, from 50% r.h. to 95% r.h.: 5% r.h./hour, 10 hours at 95% r.h., from 95% r.h. to 0% r.h.: 5% r.h./hour, 10 hours at 0% r.h., from 0% r.h. to 50% r.h.: 5% r.h./hour, 1 hours at 50% r.h.

[4] = Relative stability of polymorphic forms under dry conditions (heating, micronization)
Procedure: (§1) Thermal analysis was carried out with a Perkin Elmer DSC7 with the following experimental conditions: 3 to 6 mg sample mass, closed gold sample pan, temperature range −50° C. to 120° C., heating rate 20 K/min. The samples were weighed in air or dry N2 atmosphere. Additional thermal analysis was conducted using a TA Instruments Q1000 DSC using hermetic aluminum pans under various conditions.
Thus forms A and B″ can be considered to be practically stable at ambient temperature. […] Micronization of the polymorph A particles under dry conditions also produced ˜25% conversion to B″.

[5] = Water solubility of solid forms A and B′ (suspension shaken, filtered, HPLC; residue by Raman); settings: for Solid residue: Raman, rough estimate
Procedure: During the following experiments: suspension equilibration, precipitation experiment, recrystallization, relative stability experiments and water solubility experiment, a filtration step was conducted. Centrifugal filter devices: Ultrafree-CL (0.22 la,m), Millipore; Centrifuge type or Eppendorf 5804R were used at a temperature of 22° C. and centrifugation program of 2 min 3000 rpm.
HPLC was used to analyse the purity of S-1. HP 1090M HPLC machine was used with the following conditions: • Column: Symmetry Shield RP18, 3.9×150 mm, 5 μm • Column temperature: 35° C. • Injection volume: 10 μL • Solvent: acetonitrile+water 1:1 v/v • Mobile phase A: 0.1% TFA-water • Mobile phase B: 0.1% TFA-acetonitrile • Flow rate: 1 mL/min. • Detection: UV at 271 nm • Run time: 21 min. • Retention time (S-1): 10.7 min.
Suspensions of the solid forms (25 or 50 mg in 3.5 or 7.0 ml bidistilled water) were shaken (800 rpm) and filtered after 0.5 h, 1.5 h, 4 h and 20 h. After filtration the solid residue was checked by Raman spectroscopy and the concentration in the clear solution was determined by HPLC.

[6] = Measurement of the approximate solubility (solvent added in steps to the solid); settings: 23 °C, read-out: Solubility
Procedure: To determine the approximate solubility at room temperature, the solvent was added in steps to the solid material. After every addition, the sample was well stirred. The addition of solvent was continued until complete dissolution or until 15 ml of solvent was added.

[7] = Relative stability of polymorphic forms under humid conditions (storage, DSC)
Procedure: as §1
Polymorph A stays stable in its A form for at least 7 days under storage conditions of ambient temperature/75% RH (Relative Humidity), ambient temperature/100% RH, 30° C./75% RH and 50° C./0% RH.
In fact, polymorph D in the presence of moisture acts as the seed for the crystallization process and drives the transformation of polymorphs A and B′ into D, similar to its role in seeding the A to D crystallization in dry conditions. […] The amount of polymorph D initially added to the sample is very small that it isn't detectable by the DSC with heating rate of 10° C./min. […] The transformation process is speeded up in FIG. 17G (b) by storing the sample in water at 50° C. […] Further work has shown that the A and B′ convert to D in the presence of moisture at lower temperatures also albeit at slower rates.

Structure (SMILES): C[C@](O)(COc1ccc(C#N)cc1)C(=O)Nc1ccc(C#N)c(C(F)(F)F)c1 [Form A, (S)-N-(4-cyano-3-(trifluoromethyl)phenyl)-3-(4-cyanophenoxy)-2-hydroxy-2-methylpropanamide]
- form B′ formed ([1]; listed as A): ~20% form B′
- form B′ formed ([1]; listed as form A): approx. 20%
- Form produced ([1]; powder stored in humidified chamber 96% r.h./23° C., 4 weeks): A + small
- Form produced ([1]; powder stored in humidified chamber 96% r.h./23° C., 9 weeks): A + form B′
- Form produced ([1]; suspension in water 111/5.0 mg/ml, sonication 5 min., stirred 19 h/37° C., filtered & air dried): B′
- Form produced ([1]; water + 5% acetic acid v/v 105/2.0 mg/ml, stirred 17 h/40° C., cooled to R.T. and removed solution): B′
- Form produced ([1]; water + 5% ethanol v/v 123/2.1 mg/ml, stirred 3 h/83° C., cooled to 47° C. within 1.5 h, filtered & air dried): B′
- Form produced ([2]; ethyl formate + n-pentane 1:2 v/v 112/2.0 mg/ml): no transformation of solid form A
- Form produced ([2]; methyl acetate + n-pentane 1:2 v/v 126/2.0 mg/ml): no transformation of solid form A
- maximum water content at 93% r.h. [3]: 1.5%
- solid form change on heating ([4]; heating to 110° C. in the presence of D): rearrange into D
- conversion to B″ ([4]; micronization of the particles under dry conditions): ~25%
- solubility in water ([5]; 22° C., stated as embodiment): 0.023 to 0.027 mg/mL
- Solid residue ([5]; water, 22° C., 0.5 h): A + B′ (approx. 95% + 5%) ^c)
- Solid residue ([5]; water, 22° C., 1.5 h): A + B′ (approx. 90% + 10%) ^c)
- Solid residue ([5]; water, 22° C., 4.0 h): A + B′ (approx. 85% + 15%) ^c)
- Solid residue ([5]; water, 22° C., 20 h): A + B′ (approx. 75% + 25%) ^c)
- pH of the solution ([5]; water, 22° C., 20 h suspension equilibration): ^d) pH of the solution: 8.7
- solubility ([5]; water, 22° C., suspension equilibration time 0.5 h, mean of two measurements (±standard deviation)): 21.0 ± 3.9 mg/1000 ml
- solubility ([5]; water, 22° C., suspension equilibration time 1.5 h, mean of two measurements (±standard deviation)): 24.0 ± 1.4 mg/1000 ml
- solubility ([5]; water, 22° C., suspension equilibration time 1.5 h, mean of two measurements (±standard deviation), listed as A): 24.0±1.4 mg/1000 ml
- solubility ([5]; water, 22° C., suspension equilibration time 4.0 h, mean of two measurements (±standard deviation)): 27.6 ± 1.5 mg/1000 ml
- solubility ([5]; water, 22° C., suspension equilibration time 20 h, mean of two measurements (±standard deviation)): 24.5 ± 1.7 ^d) mg/1000 ml
- solubility ([5]; water, 22 °C, water, thermodynamic from solid, stated as embodiment, read-out: solubility in water): 0.02 to 0.03 mg/mL (≈ 0.0514 to 0.0771 mM)
- solubility ([6]; 1,4-dioxane, organic solvent or mixture, thermodynamic from solid, 1,4-dioxane, 23° C.): > 200 mg/mL
- solubility ([6]; TBME, organic solvent or mixture, thermodynamic from solid, TBME, 23° C.): > 200 mg/mL
- solubility ([6]; THF, organic solvent or mixture, thermodynamic from solid, THF, 23° C.): > 200 mg/mL
- solubility ([6]; THF/n-heptane 1:1 v/v, organic solvent or mixture, thermodynamic from solid, THF/n-heptane 1:1 v/v, 23° C.): > 200 mg/mL
- solubility ([6]; THF/n-heptane 1:3 v/v, organic solvent or mixture, thermodynamic from solid, THF/n-heptane 1:3 v/v, 23° C.): 65 mg/mL (≈ 167 mM)
- solubility ([6]; acetic acid, organic solvent or mixture, thermodynamic from solid, acetic acid, 23° C.): > 200 mg/mL
- solubility ([6]; acetone, organic solvent or mixture, thermodynamic from solid, acetone, 23° C.): > 200 mg/mL
- solubility ([6]; acetone/n-heptane 1:1 v/v, organic solvent or mixture, thermodynamic from solid, acetone/n-heptane 1:1 v/v, 23° C.): > 200 mg/mL
- solubility ([6]; acetone/n-heptane 1:3 v/v, organic solvent or mixture, thermodynamic from solid, acetone/n-heptane 1:3 v/v, 23° C.): 90 mg/mL (≈ 231 mM)
- solubility ([6]; acetonitrile, organic solvent or mixture, thermodynamic from solid, acetonitrile, 23° C.): > 200 mg/mL
- solubility ([6]; acetonitrile/toluene 1:1 v/v, organic solvent or mixture, thermodynamic from solid, acetonitrile/toluene 1:1 v/v, 23° C.): > 200 mg/mL
- solubility ([6]; acetonitrile/toluene 1:3 v/v, organic solvent or mixture, thermodynamic from solid, acetonitrile/toluene 1:3 v/v, 23° C.): 170 mg/mL (≈ 437 mM)
- solubility ([6]; dichloromethane, organic solvent or mixture, thermodynamic from solid, dichloromethane, 23° C.): > 200 mg/mL
- solubility ([6]; ethanol, organic solvent or mixture, thermodynamic from solid, ethanol, 23° C.): > 200 mg/mL
- solubility ([6]; ethanol/n-heptane 1:1 v/v, organic solvent or mixture, thermodynamic from solid, ethanol/n-heptane 1:1 v/v, 23° C.): 180 mg/mL (≈ 462 mM)
- solubility ([6]; ethanol/n-heptane 1:3 v/v, organic solvent or mixture, thermodynamic from solid, ethanol/n-heptane 1:3 v/v, 23° C.): 50 mg/mL (≈ 128 mM)
- solubility ([6]; ethanol/water 1:1 v/v, aqueous with cosolvent or surfactant or cyclodextrin, thermodynamic from solid, ethanol/water 1:1 v/v, 23° C.): 50 mg/mL (≈ 128 mM)
- solubility ([6]; ethanol/water 1:3 v/v, aqueous with cosolvent or surfactant or cyclodextrin, thermodynamic from solid, ethanol/water 1:3 v/v, 23° C.): < 5 mg/mL
- solubility ([6]; ethanol/water 3:1 v/v, aqueous with cosolvent or surfactant or cyclodextrin, thermodynamic from solid, ethanol/water 3:1 v/v, 23° C.): > 200 mg/mL
- solubility ([6]; ethyl acetate, organic solvent or mixture, thermodynamic from solid, ethyl acetate, 23° C.): > 200 mg/mL
- solubility ([6]; ethyl acetate/n-heptane 1:1 v/v, organic solvent or mixture, thermodynamic from solid, ethyl acetate/n-heptane 1:1 v/v, 23° C.): 65 mg/mL (≈ 167 mM)
- solubility ([6]; ethyl acetate/n-heptane 1:2 v/v, organic solvent or mixture, thermodynamic from solid, ethyl acetate/n-heptane 1:2 v/v, 23° C. (B′: solid form transformation into solid form A)): 9 mg/mL (≈ 23.1 mM)
- solubility ([6]; ethyl acetate/n-heptane 1:3 v/v, organic solvent or mixture, thermodynamic from solid, ethyl acetate/n-heptane 1:3 v/v, 23° C. (turbid solution)): < 5 mg/mL
- solubility ([6]; ethyl acetate/n-pentane 1:2 v/v, organic solvent or mixture, thermodynamic from solid, ethyl acetate/n-pentane 1:2 v/v, 23° C.): 13 mg/mL (≈ 33.4 mM)
- solubility ([6]; ethyl formate/n-pentane 1:2 v/v, organic solvent or mixture, thermodynamic from solid, ethyl formate/n-pentane 1:2 v/v, 23° C.): 12 mg/mL (≈ 30.8 mM)
- solubility ([6]; methyl acetate/n-pentane 1:2 v/v, organic solvent or mixture, thermodynamic from solid, methyl acetate/n-pentane 1:2 v/v, 23° C.): 8 mg/mL (≈ 20.5 mM)
- solubility ([6]; toluene, organic solvent or mixture, thermodynamic from solid, toluene, 23° C. (turbid solution)): < 6 mg/mL
- solid form change, seeded with a small amount of D ([7]; 50° C./75% RH, after 24 hours): most of the polymorph form A has been converted to B′ but a small amount of sample has also been converted to D
- time stable in its A form on storage ([7]; each of ambient temperature/75% RH, ambient temperature/100% RH, 30° C./75% RH and 50° C./0% RH): at least 7 days
- stable through (storage time) ([7]; stored at 25° C./60% RH): ≥ 36 months
- stable through (storage time) ([7]; stored at 30° C./65% RH): ≥ 9 months
- solid form change on storage ([7]; stored at 40° C./75% RH): converts to B′ when stored at 40° C./75% RH within one month
- solid form change on storage ([7]; stored at 40° C./75% RH, listed as polymorph A): converted to B′ within one month
- solid form change on storage ([7]; stored at 50° C./75% RH): converts to B′
- solid form change, seeded with a small amount of D ([7]; stored in water at 50° C., after 6 hours): converted to both B′ and D
- solid form change, seeded with a small amount of D ([7]; stored in water at 50° C., by 24 hours): predominantly in form D
